13 compounds from ChEMBL document CHEMBL3603752, “Discovery of N-(4-aryl-5-aryloxy-thiazol-2-yl)-amides as potent RORγt inverse agonists” (Bioorg Med Chem, 2015) can be followed below.

Molecules are shown by their SMILES.

Data set [1] has as its target T1, Nuclear receptor ROR-gamma (Mus musculus, UniProt P51450).
T1 sequence (P51450 whole entry): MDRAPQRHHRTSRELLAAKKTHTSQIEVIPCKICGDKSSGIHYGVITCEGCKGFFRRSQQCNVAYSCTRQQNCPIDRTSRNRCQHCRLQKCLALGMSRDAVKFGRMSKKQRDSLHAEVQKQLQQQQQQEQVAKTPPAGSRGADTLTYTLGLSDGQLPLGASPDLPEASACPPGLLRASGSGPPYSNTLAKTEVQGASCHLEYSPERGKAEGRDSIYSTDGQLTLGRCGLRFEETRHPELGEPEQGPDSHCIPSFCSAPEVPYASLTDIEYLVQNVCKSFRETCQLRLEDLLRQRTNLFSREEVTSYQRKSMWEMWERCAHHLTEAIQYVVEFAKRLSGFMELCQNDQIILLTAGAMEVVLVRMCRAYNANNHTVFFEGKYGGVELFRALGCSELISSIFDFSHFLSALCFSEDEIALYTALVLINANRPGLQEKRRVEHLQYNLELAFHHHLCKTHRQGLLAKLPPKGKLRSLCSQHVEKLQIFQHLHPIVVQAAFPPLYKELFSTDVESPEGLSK
The data set can be described thus: Inverse agonist activity at RORgammat in mouse Th17 cells assessed as inhibition of IL-17 production after 3 days by ELISA. In kind it is cell-based. On the technique in general: An ELISA detects its analyte on a solid surface through an enzyme-linked reagent.

The next data set deals with Liver. Briefly: Intrinsic clearance in mouse liver microsomes at 0.5 microM by LC/MS/MS analysis. The format is ADME.
In data set [2] the target is T2, Nuclear receptor ROR-gamma (Homo sapiens, UniProt P51449).
T2 sequence (P51449 whole entry): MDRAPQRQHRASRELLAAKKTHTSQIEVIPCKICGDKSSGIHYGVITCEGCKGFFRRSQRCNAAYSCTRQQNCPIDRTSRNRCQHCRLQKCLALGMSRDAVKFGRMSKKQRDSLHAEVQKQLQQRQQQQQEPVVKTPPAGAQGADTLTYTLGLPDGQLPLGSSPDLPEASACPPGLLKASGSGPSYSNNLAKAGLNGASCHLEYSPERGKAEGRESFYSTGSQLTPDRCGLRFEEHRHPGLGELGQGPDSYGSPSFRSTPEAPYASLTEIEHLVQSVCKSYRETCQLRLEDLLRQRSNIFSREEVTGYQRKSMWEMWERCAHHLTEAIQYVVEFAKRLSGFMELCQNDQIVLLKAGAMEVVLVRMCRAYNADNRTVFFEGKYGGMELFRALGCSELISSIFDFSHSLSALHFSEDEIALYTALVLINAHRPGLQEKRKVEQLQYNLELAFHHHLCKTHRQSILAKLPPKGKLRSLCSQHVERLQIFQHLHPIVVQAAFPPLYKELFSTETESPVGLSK
Briefly: Inverse agonist activity at APC-labeled RORgammat-LBD (unknown origin) assessed as inhibition of N-(2-chloro-6-fluorobenzyl)-N-((2'-methoxy-[1,1'-biphenyl]-4-yl)-methyl)benzenesulfonamide-induced europium-labeled SRC1 recruitment after 1 hr by FRET analysis.

Data set [3] concerns the target T2, Nuclear receptor ROR-gamma. Briefly: Agonist activity at APC-labeled RORgammat-LBD (unknown origin) assessed as induction of europium-labeled SRC1 recruitment after 1 hr by dual FRET analysis.

By IC50 is commonly meant the concentration that inhibits the measured activity by half. Turning to `CCS(=O)(=O)c1ccc(CC(=O)Nc2nc(-c3ccccc3)c(Oc3ccccc3C(F)(F)F)s2)cc1`, in data set [1], the IC50 was 1 µM. For the same compound, the CLH in the data set with Liver was less than 0.36 mL/min/g.
The like results for `CCS(=O)(=O)c1ccc(CC(=O)Nc2nc(-c3cccc(Cl)c3)c(Oc3ccccc3C(F)(F)F)s2)cc1` were, in that order, 2 µM and less than 0.36 mL/min/g.
The corresponding values for `CCS(=O)(=O)c1ccc(CC(=O)Nc2nc(-c3ccccc3)c(Oc3ccccc3Cl)s2)cc1` are 1.58 µM and 0.46 mL/min/g.
The corresponding values for `CCS(=O)(=O)c1ccc(CC(=O)Nc2nc(-c3ccccc3)c(Oc3ccc(OC)cc3)s2)cc1` are greater than 10 µM and 0.39 mL/min/g.
One may read the EC50 as the midpoint of the concentration-response curve. With `CCS(=O)(=O)c1ccc(CC(=O)Nc2nc(-c3cc(Cl)ccc3Cl)c(-c3ccccc3)s2)cc1`, in data set [2], the IC50 is 0.158 µM. Also, the EC50 in data set [3] is 3.16 µM.
With `CCS(=O)(=O)c1ccc(CC(=O)Nc2nc(-c3cccc(C#N)c3)c(Oc3ccc(C(F)(F)F)cc3Cl)s2)cc1`, the IC50 in data set [1] was 0.398 µM. Further, in the data set on Liver, the CLH is less than 0.36 mL/min/g.
For the compound `CCS(=O)(=O)c1ccc(CC(=O)Nc2nc(-c3cccc(Cl)c3)c(Oc3ccccc3)s2)cc1`, the IC50 in data set [1] is 1.58 µM.
For `CCS(=O)(=O)c1ccc(CC(=O)Nc2nc(-c3cccc(C#N)c3)c(Oc3ccc(Cl)cc3C(F)(F)F)s2)cc1`, in data set [1], the IC50 was 0.158 µM. Besides, the CLH in the data set with Liver is less than 0.36 mL/min/g.
The corresponding values for `CCS(=O)(=O)c1ccc(CC(=O)Nc2nc(-c3ccccc3)c(Oc3ccc(C(F)(F)F)cc3)s2)cc1` are 0.631 µM and less than 0.36 mL/min/g.
The like results for `CCS(=O)(=O)c1ccc(CC(=O)Nc2nc(-c3cccc(C#N)c3)c(Oc3ccccc3C(F)(F)F)s2)cc1` were, in that order, 0.251 µM and less than 0.36 mL/min/g.
On to `CCS(=O)(=O)c1ccc(CC(=O)Nc2nc(-c3ccccc3)c(Oc3ccc(Cl)cc3)s2)cc1`, for which the IC50 in data set [1] was 1.58 µM. Also, the CLH in the data set on Liver was less than 0.36 mL/min/g.
The corresponding values for `CCS(=O)(=O)c1ccc(CC(=O)Nc2nc(-c3ccccc3)c(Oc3ccccc3OC)s2)cc1` are 0.251 µM and 2.37 mL/min/g.
As for `CCS(=O)(=O)c1ccc(CC(=O)Nc2nc(-c3ccc(Cl)cc3)c(Oc3ccccc3)s2)cc1`, in data set [1], the IC50 was 3.98 µM. Besides, the CLH in the data set with Liver is less than 0.36 mL/min/g.
